IC50 data for 23 compounds are collected here from patent US12473304B2, “Heterocyclic PAD4 inhibitors” (BRISTOL-MYERS SQUIBB COMPANY, priority 2020, dated 2025).

The target of this experiment is human PAD4 (hPAD4) (Homo sapiens (Human), UniProt Q9UM07). As to the kind of experiment: RFMS Human PAD4 Functional Assay 1. Type of experiment: biochemical. The note with it: RFMS assay 1; 5 nM hPAD4, 250 μM BAEE substrate, 50 μM calcium, 37° C. The procedure, abridged: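 Citrullination product read by RapidFire triple-quad MRM against a modified-citrulline internal standard, after TCA stop and 30 min phenyl glyoxal step at 37 °C. Reaction: 250 μM BAEE, 5 nM human PAD4, 90 min at 37 °C, pH 7.5 HEPES buffer with 50 μM calcium and 5 μM TPEN, following 30 min compound–enzyme preincubation (max 50 μM).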
human PAD4 (hPAD4), sequence (Q9UM07 whole entry): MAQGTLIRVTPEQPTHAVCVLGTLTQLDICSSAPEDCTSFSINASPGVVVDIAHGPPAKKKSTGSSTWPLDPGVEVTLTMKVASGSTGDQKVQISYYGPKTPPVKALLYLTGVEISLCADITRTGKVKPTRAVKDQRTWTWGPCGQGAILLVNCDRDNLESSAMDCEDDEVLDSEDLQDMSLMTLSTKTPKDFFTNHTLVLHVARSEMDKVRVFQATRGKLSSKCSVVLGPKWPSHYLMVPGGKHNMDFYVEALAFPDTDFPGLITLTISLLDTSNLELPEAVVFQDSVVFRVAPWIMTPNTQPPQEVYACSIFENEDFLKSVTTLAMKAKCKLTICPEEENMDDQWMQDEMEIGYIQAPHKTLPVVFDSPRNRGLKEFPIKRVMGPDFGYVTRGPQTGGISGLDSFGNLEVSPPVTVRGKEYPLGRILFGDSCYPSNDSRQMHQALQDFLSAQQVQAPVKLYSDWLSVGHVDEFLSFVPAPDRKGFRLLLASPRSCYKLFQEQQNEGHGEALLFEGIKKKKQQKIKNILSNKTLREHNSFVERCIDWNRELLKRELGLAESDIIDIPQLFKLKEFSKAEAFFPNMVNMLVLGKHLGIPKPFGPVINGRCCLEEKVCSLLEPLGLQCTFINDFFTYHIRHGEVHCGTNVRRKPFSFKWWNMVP
On to `COC1CN(c2ccc3cc(-c4nn5cc(C(=O)N6CC7CCC6[C@@H]7N)cc(F)c5c4C)n(CC4CC4)c3n2)C1` (stereo partly drawn) [Example 50, ((7R)-7-Amino-2-azabicyclo[2.2.1]heptan-2-yl)(2-(1-(cyclopropylmethyl)-6-(3-methoxyazetidin-1-yl)-1H-pyrrolo[2,3-b]pyridin-2-yl)-4-fluoro-3-methylpyrazolo[1,5-a]pyridin-6-yl)methanone], for which the IC50 (in general, the concentration that inhibits the measured activity by half) was 0.074 µM.

As to `Cc1c(-c2cc3cccc(C4CN(C(=O)[C@H]5CCC[C@@H](O)C5)C4)c3n2CC2CC2)nn2cc(C(=O)N3CCC[C@@H](N)C3)ccc12` [Example 534, ((R)-3-Aminopiperidin-1-yl)(2-(1-(cyclopropylmethyl)-7-(1-((1S,3R)-3-hydroxycyclohexane-1-carbonyl)azetidin-3-yl)-1H-indol-2-yl)-3-methylpyrazolo[1,5-a]pyridin-6-yl)methanone], the concentration for half-maximal inhibition (IC50) came out at 0.44 µM.

On to `Cc1c(-c2cc3cccc(C4CCN(C(=O)C5CC(O)(C(F)(F)F)C5)CC4)c3n2CC2CC2)nn2cc(C(=O)N3CCC[C@@H](N)C3)ccc12` (mixture of isomers) [Example 456, (R)-(3-aminopiperidin-1-yl)(2-(1-(cyclopropylmethyl)-7-(1-(3-hydroxy-3-(trifluoromethyl)cyclobutane-1-carbonyl)piperidin-4-yl)-1H-indol-2-yl)-3-methylpyrazolo[1,5-a]pyridin-6-yl)methanone], for which the IC50 is 0.03 µM.

Consider `Cc1c(-c2cc3ccc(-c4cccc(O)c4Cl)nc3n2CC2CC2)nn2cc(C(=O)N3CCC[C@@H](N)C3)ccc12` [Example 313, 3-(2-{6-[(3R)-3-Aminopiperidine-1-carbonyl]-3-methylpyrazolo[1,5-a]pyridin-2-yl}-1-(cyclopropylmethyl)-1H-pyrrolo[2,3-b]pyridin-6-yl)-2-chlorophenol], for which the IC50 was found to be 0.1 µM.

Turning to `COc1cc(C(=O)N2CC3CCC2[C@@H]3N)cn2nc(-c3cc4ccc(-c5ccc6c(c5)C(=O)NC6)nc4n3CC3CC3)c(C)c12` (stereo partly drawn) [Example 3, 6-(2-(6-((7R)-7-Amino-2-azabicyclo[2.2.1]heptane-2-carbonyl)-4-methoxy-3-methylpyrazolo[1,5-a]pyridin-2-yl)-1-(cyclopropylmethyl)-1H-pyrrolo[2,3-b]pyridin-6-yl)isoindolin-1-one], the IC50 was found to be 0.06 µM.

Take `Cc1c(-c2cc3cccc(C4CCN(C(=O)[C@H]5CC[C@H](O)CC5)CC4)c3n2CC2CC2)nn2cc(C(=O)N3C[C@H](N)C[C@@H](F)C3)cc(F)c12` [Example 414, ((3R,5R)-3-Amino-5-fluoropiperidin-1-yl)(2-(1-(cyclopropylmethyl)-7-(1-((1r,4r)-4-hydroxycyclohexane-1-carbonyl)piperidin-4-yl)-1H-indol-2-yl)-4-fluoro-3-methylpyrazolo[1,5-a]pyridin-6-yl)methanone]: the IC50 is 0.26 µM.

On to `Cc1c(-c2cc3ccc(N4CCNCC4)cc3n2CC2CC2)oc2cc(C(=O)N3C[C@H](N)C[C@@H](F)C3)ccc12` [Example 201, ((3R,5R)-3-Amino-5-fluoropiperidin-1-yl)(2-(1-(cyclopropylmethyl)-6-(piperazin-1-yl)-1H-indol-2-yl)-3-methylbenzofuran-6-yl)methanone], for which the IC50 stood at 1.97 µM.

Consider `Cc1c(-c2cc3ccnc(OCCn4ccnc4C)c3n2CC2CC2)nn2cc(C(=O)N3C[C@H](N)C[C@@H](F)C3)ccc12` [Example 611, ((3R,5R)-3-Amino-5-fluoropiperidin-1-yl)(2-(1-(cyclopropylmethyl)-7-(2-(2-methyl-1H-imidazol-1-yl)ethoxy)-1H-pyrrolo[2,3-c]pyridin-2-yl)-3-methylpyrazolo[1,5-a]pyridin-6-yl)methanone], for which the IC50 was 1.56 µM.

`Cc1c(-c2cc3ccnc(OCC4CNC(=O)C4)c3n2CC2CC2)nn2cc(C(=O)N3C[C@H](N)C[C@@H](F)C3)ccc12` (single isomer, unassigned; isomer 1) [Example 614]: the IC50 came to 0.06 µM.

Take `COc1cc(C(=O)N2CCC[C@@H](N)C2)cn2nc(-c3cc4cccc(C5CN(C(=O)[C@H]6CC[C@@H](O)CC6)C5)c4n3CC3CC3)c(C)c12` [Example 520, ((R)-3-Aminopiperidin-1-yl)(2-(1-(cyclopropylmethyl)-7-(1-((1s,4s)-4-hydroxycyclohexane-1-carbonyl)azetidin-3-yl)-1H-indol-2-yl)-4-methoxy-3-methylpyrazolo[1,5-a]pyridin-6-yl)methanone]: the IC50 is 0.22 µM.

For the compound `COc1cc(C(=O)N2C[C@H](N)C[C@@H](F)C2)cc2sc(-c3cc4ccc(-c5ccc6c(c5)CNC6=O)cc4n3CC3CC3)c(C)c12` [Example 144, 5-(2-(6-((3R,5R)-3-Amino-5-fluoropiperidine-1-carbonyl)-4-methoxy-3-methylbenzo[b]thiophen-2-yl)-1-(cyclopropylmethyl)-1H-indol-6-yl)isoindolin-1-one], the IC50 stood at 0.164 µM.

Take `Cc1c(-c2cc3ccc(-c4ccn5c(C)nnc5c4)nc3n2CC2CC2)oc2cc(C(=O)N3CC4CCC3[C@@H]4N)ccc12` (some centres unmarked) [Example 167]: the IC50 turned out to be 0.045 µM.

`Cc1c(O)cccc1-c1ccc2cc(-c3nn4cc(C(=O)N5CC6CCC5[C@@H]6N)ccc4c3C)n(CC3CC3)c2n1` (stereo partly drawn) [Example 301, 3-(2-{6-[(7R)-7-Amino-2-azabicyclo[2.2.1]heptane-2-carbonyl]-3-methylpyrazolo[1,5-a]pyridin-2-yl}-1-(cyclopropylmethyl)-1H-pyrrolo[2,3-b]pyridin-6-yl)-2-methylphenol]: the IC50 amounted to 0.03 µM.

Regarding `Cc1c(-c2cc3ccc(N4CCC(O)CC4)nc3n2CC2CC2)nn2cc(C(=O)N3C[C@H](N)C[C@@H](F)C3)ccc12` [Example 88, ((3R,5R)-3-Amino-5-fluoropiperidin-1-yl)(2-(1-(cyclopropylmethyl)-6-(4-hydroxypiperidin-1-yl)-1H-pyrrolo[2,3-b]pyridin-2-yl)-3-methylpyrazolo[1,5-a]pyridin-6-yl)methanone], the IC50 was 1.68 µM.

As for `COc1cc(C(=O)N2C[C@H](N)C[C@@H](F)C2)cc2sc(-c3cc4ccc(-c5ccc6c(c5)C(=O)NC6)cc4n3CC3CC3)c(C)c12` [Example 143, 6-(2-(6-((3R,5R)-3-Amino-5-fluoropiperidine-1-carbonyl)-4-methoxy-3-methylbenzo[b]thiophen-2-yl)-1-(cyclopropylmethyl)-1H-indol-6-yl)isoindolin-1-one], the IC50 turned out to be 0.588 µM.

For the compound `COc1cc(C(=O)N2CC3CCC2[C@@H]3N)cn2nc(-c3cc4cccnc4n3CC3CC3)c(C)c12` (stereo partly drawn) [Example 1, ((7R)-7-Amino-2-azabicyclo[2.2.1]heptan-2-yl)(2-(1-(cyclopropylmethyl)-1H-pyrrolo[2,3-b]pyridin-2-yl)-4-methoxy-3-methylpyrazolo[1,5-a]pyridin-6-yl)methanone], the IC50 is 0.28 µM.

For the compound `Cc1c(-c2cc3ccc(Cl)nc3n2CC2CC2)oc2cc(C(=O)N3CC4CCC3[C@@H]4N)ccc12` (stereo partly drawn) [Example 165, ((7R)-7-Amino-2-azabicyclo[2.2.1]heptan-2-yl)(2-(6-chloro-1-(cyclopropylmethyl)-1H-pyrrolo[2,3-b]pyridin-2-yl)-3-methylbenzofuran-6-yl)methanone], the IC50 came to 0.198 µM.

As for `Cc1c(-c2cc3cccc(OC[C@H]4CCC(=O)N4)c3n2CC2CC2)nn2cc(C(=O)N3C[C@H](N)C[C@@H](F)C3)ccc12` [Example 587, (R)-5-(((2-(6-((3R,5R)-3-Amino-5-fluoropiperidine-1-carbonyl)-3-methylpyrazolo[1,5-a]pyridin-2-yl)-1-(cyclopropylmethyl)-1H-indol-7-yl)oxy)methyl)pyrrolidin-2-one], the IC50 is 1.12 µM.

On to `COc1cc(C(=O)N2C[C@H](N)C[C@@H](F)C2)cn2nc(-c3cc4ccnc(OCCn5ccnc5)c4n3CC3CC3)c(C)c12` [Example 597, (2-(7-(2-(1H-Imidazol-1-yl)ethoxy)-1-(cyclopropylmethyl)-1H-pyrrolo[2,3-c]pyridin-2-yl)-4-methoxy-3-methylpyrazolo[1,5-a]pyridin-6-yl)((3R,5R)-3-amino-5-fluoropiperidin-1-yl)methanone], for which the IC50 is 0.01 µM.

For the compound `Cc1c(-c2cc3ccc(-c4cc(F)c(O)c(F)c4)nc3n2CC2CC2)nn2cc(C(=O)N3CC4CCC3[C@@H]4N)ccc12` (stereo partly drawn) [Example 74, ((7R)-7-Amino-2-azabicyclo[2.2.1]heptan-2-yl)(2-(1-(cyclopropylmethyl)-6-(3,5-difluoro-4-hydroxyphenyl)-1H-pyrrolo[2,3-b]pyridin-2-yl)-3-methylpyrazolo[1,5-a]pyridin-6-yl)methanone], the IC50 worked out at 0.425 µM.

On to `COc1cc(C(=O)N2CC3CCC2[C@@H]3N)cn2nc(-c3cc4ccc(-c5ccn6c(C)nnc6c5)nc4n3CC3CC3)c(C)c12` (stereo partly drawn) [Example 8, ((7R)-7-Amino-2-azabicyclo[2.2.1]heptan-2-yl)(2-(1-(cyclopropylmethyl)-6-(3-methyl-[1,2,4]triazolo[4,3-a]pyridin-7-yl)-1H-pyrrolo[2,3-b]pyridin-2-yl)-4-methoxy-3-methylpyrazolo[1,5-a]pyridin-6-yl)methanone], for which the IC50 turned out to be 0.037 µM.

Regarding `Cc1c(-c2cc3ccc(-c4cccc5[nH]ncc45)nc3n2CC2CC2)nn2cc(C(=O)N3C[C@H](N)C[C@@H](F)C3)ccc12` [Example 322, (3R,5R)-1-{2-[1-(Cyclopropylmethyl)-6-(1H-indazol-4-yl)-1H-pyrrolo[2,3-b]pyridin-2-yl]-3-methylpyrazolo[1,5-a]pyridine-6-carbonyl}-5-fluoropiperidin-3-amine], the IC50 stood at 0.5 µM.

Consider `COc1cc(C(=O)N2CC3CCC2[C@@H]3N)cc2oc(-c3cc4ccc(-c5ccc(C(N)=O)c(F)c5)cc4n3CC3CC3)c(C)c12` (stereo partly drawn) [Example 152, 4-(2-(6-((7R)-7-Amino-2-azabicyclo[2.2.1]heptane-2-carbonyl)-4-methoxy-3-methylbenzofuran-2-yl)-1-(cyclopropylmethyl)-1H-indol-6-yl)-2-fluorobenzamide], for which the IC50 was 0.192 µM.
